Values quoted from earlier work in patent US20090028935A1, “CARVEDILOL FORMS, COMPOSITIONS, AND METHODS OF PREPARATION THEREOF” (priority 2006, published 2009).
Entries after “also recorded” stand apart in the source; their conditions may differ. Like-named read-outs stand apart in the source and are kept apart here.

Conditions: background statement

COc1ccccc1OCCNCC(O)COc1cccc2[nH]c3ccccc3c12 (racemic) [Carvedilol, (±)-1-(carbazol-4-yloxy)-3-[[2-(o-methoxyphenoxy)ethyl]amino]-2-propanol]
aqueous solubility: low solubility in aqueous media, especially in media of increasingly basic pH; also recorded: limited aqueous solubility, especially in basic aqueous media | aqueous solubility (listed as carvedilol): pH dependent solubility with significantly lower solubility in the lower gastrointestinal tract
